Reference: the supplement of paper PMC11451515

What was measured:
Conditions in all cases: 48 h
SEM cells [1] = experiment: cell viability relative to DMSO control; higher = less cytotoxic
Method in brief: (§1)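 Before seeding, each leukemia line was adapted for at least four passages in each medium. NOMO1 or SEM cells (500 cells/well) and P12-Ichikawa cells (1000 cells/well) went into 1536-well plates at 5 μl, then received library compounds in DMSO by pin dosing across 11 threefold concentrations, 47 μM to 0.79 nM. Readout was CellTiter-Glo One luminescence after 48 h at 37°C, and viability is given as a per-plate percentage of DMSO wells, with cell-free wells as background.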

NOMO1 [2] = experiment: as above
Method in brief: as §1

P12-Ichikawa [3] = experiment: as above
Method in brief: as §1

SEM cells [4] = experiment: AUC of viability dose-response curve (% viability x log10 dose units); higher = less sensitive
Method in brief: (§2)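 Over 48 h at 37°C, leukemia cells in 1536-well plates (500 or 1000 cells/well), adapted to each medium, received library compounds in DMSO at 11 threefold doses from 47 μM to 0.79 nM. CellTiter-Glo One luminescence, normalised per plate to DMSO and cell-free wells, was fitted by a four-parameter log-logistic function of log10 dose. The area under the curve was then integrated by trapezoidal rule, after scaling curves above full viability and removing those that failed quality control.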

NOMO1 [5] = experiment: as above
Method in brief: as §2

P12-Ichikawa [6] = experiment: as above
Method in brief: as §2

O=C(O)CCCCCC(=O)NN=C1CCCC1
cell viability [%]
Conditions	NOMO1 [2]	P12-Ichikawa [3]	SEM cells [1]
HPLM + 10% dialyzed FBS, 0.000781 µM	99.6	96.2	88.6
HPLM + 10% dialyzed FBS, 0.00234 µM	96	103	100
HPLM + 10% dialyzed FBS, 0.00702 µM	116	99.4	99.5
HPLM + 10% dialyzed FBS, 0.0211 µM	122	108	104
HPLM + 10% dialyzed FBS, 0.0632 µM	107	110	119
HPLM + 10% dialyzed FBS, 0.19 µM	120	107	114
HPLM + 10% dialyzed FBS, 0.569 µM	126	115	114
HPLM + 10% dialyzed FBS, 1.71 µM	132	116	117
HPLM + 10% dialyzed FBS, 5.12 µM	122	111	119
HPLM + 10% dialyzed FBS, 15.4 µM	130	99.7	110
HPLM + 10% dialyzed FBS, 46.1 µM	133	73.2	104
RPMI 5 mM glucose + 10% FBS, 0.000781 µM	105	89	89.8
RPMI 5 mM glucose + 10% FBS, 0.00234 µM	111	103	99.3
RPMI 5 mM glucose + 10% FBS, 0.00702 µM	111	104	106
RPMI 5 mM glucose + 10% FBS, 0.0211 µM	112	113	104
RPMI 5 mM glucose + 10% FBS, 0.0632 µM	102	105	96.1
RPMI 5 mM glucose + 10% FBS, 0.19 µM	100	112	104
RPMI 5 mM glucose + 10% FBS, 0.569 µM	112	106	114
RPMI 5 mM glucose + 10% FBS, 1.71 µM	103	120	113
RPMI 5 mM glucose + 10% FBS, 5.12 µM	116	104	100
RPMI 5 mM glucose + 10% FBS, 15.4 µM	123	112	108
RPMI 5 mM glucose + 10% FBS, 46.1 µM	129	105	93.2
RPMI 5 mM glucose + 10% dialyzed FBS, 0.000781 µM	91.2	85.4	100
RPMI 5 mM glucose + 10% dialyzed FBS, 0.00234 µM	92.8	98.8	99.2
RPMI 5 mM glucose + 10% dialyzed FBS, 0.00702 µM	97.9	103	111
RPMI 5 mM glucose + 10% dialyzed FBS, 0.0211 µM	110	100	119
RPMI 5 mM glucose + 10% dialyzed FBS, 0.0632 µM	105	107	120
RPMI 5 mM glucose + 10% dialyzed FBS, 0.19 µM	115	98.1	101
RPMI 5 mM glucose + 10% dialyzed FBS, 0.569 µM	96.6	113	111
RPMI 5 mM glucose + 10% dialyzed FBS, 1.71 µM	109	99.3	128
RPMI 5 mM glucose + 10% dialyzed FBS, 5.12 µM	118	105	117
RPMI 5 mM glucose + 10% dialyzed FBS, 15.4 µM	121	104	127
RPMI 5 mM glucose + 10% dialyzed FBS, 46.1 µM	103	109	110

AUC of viability dose-response curve
Conditions	NOMO1 [5]	P12-Ichikawa [6]	SEM cells [4]
HPLM + 10% dialyzed FBS	433	467	456
RPMI 5 mM glucose + 10% FBS	414	468	468
RPMI 5 mM glucose + 10% dialyzed FBS	453	447	461

CCC(C)CCCCC(=O)N[C@@H](CCN)C(=O)NC(C(=O)N[C@H](CCN)C(=O)N[C@@H]1CCNC(=O)C([C@@H](C)O)NC(=O)[C@@H](CCN)NC(=O)[C@@H](CCN)NC(=O)[C@@H](CC(C)C)NC(=O)[C@H](Cc2ccccc2)NC(=O)[C@H](CCN)NC1=O)[C@@H](C)O (stereo partly specified)
cell viability [%]
Conditions	NOMO1 [2]	P12-Ichikawa [3]	SEM cells [1]
HPLM + 10% dialyzed FBS, 0.000781 µM	118	114	81.6
HPLM + 10% dialyzed FBS, 0.00234 µM	110	118	85.8
HPLM + 10% dialyzed FBS, 0.00702 µM	113	117	94
HPLM + 10% dialyzed FBS, 0.0211 µM	112	117	94.3
HPLM + 10% dialyzed FBS, 0.0632 µM	123	122	100
HPLM + 10% dialyzed FBS, 0.19 µM	133	128	92.9
HPLM + 10% dialyzed FBS, 0.569 µM	137	129	76.5
HPLM + 10% dialyzed FBS, 1.71 µM	119	124	112
HPLM + 10% dialyzed FBS, 5.12 µM	124	129	109
HPLM + 10% dialyzed FBS, 15.4 µM	127	128	110
HPLM + 10% dialyzed FBS, 46.1 µM	125	126	101
RPMI 5 mM glucose + 10% FBS, 0.000781 µM	102	114	104
RPMI 5 mM glucose + 10% FBS, 0.00234 µM	125	113	113
RPMI 5 mM glucose + 10% FBS, 0.00702 µM	109	115	109
RPMI 5 mM glucose + 10% FBS, 0.0211 µM	108	120	109
RPMI 5 mM glucose + 10% FBS, 0.0632 µM	112	135	107
RPMI 5 mM glucose + 10% FBS, 0.19 µM	120	135	110
RPMI 5 mM glucose + 10% FBS, 0.569 µM	118	134	90.1
RPMI 5 mM glucose + 10% FBS, 1.71 µM	130	131	108
RPMI 5 mM glucose + 10% FBS, 5.12 µM	130	132	111
RPMI 5 mM glucose + 10% FBS, 15.4 µM	126	132	118
RPMI 5 mM glucose + 10% FBS, 46.1 µM	115	123	108
RPMI 5 mM glucose + 10% dialyzed FBS, 0.000781 µM	113	111	87.1
RPMI 5 mM glucose + 10% dialyzed FBS, 0.00234 µM	121	110	90.9
RPMI 5 mM glucose + 10% dialyzed FBS, 0.00702 µM	134	112	93.2
RPMI 5 mM glucose + 10% dialyzed FBS, 0.0211 µM	130	115	86.1
RPMI 5 mM glucose + 10% dialyzed FBS, 0.0632 µM	131	117	107
RPMI 5 mM glucose + 10% dialyzed FBS, 0.19 µM	131	117	111
RPMI 5 mM glucose + 10% dialyzed FBS, 0.569 µM	137	120	49.8
RPMI 5 mM glucose + 10% dialyzed FBS, 1.71 µM	134	134	103
RPMI 5 mM glucose + 10% dialyzed FBS, 5.12 µM	124	135	105
RPMI 5 mM glucose + 10% dialyzed FBS, 15.4 µM	135	123	102
RPMI 5 mM glucose + 10% dialyzed FBS, 46.1 µM	123	124	118

AUC of viability dose-response curve
Conditions	NOMO1 [5]	P12-Ichikawa [6]	SEM cells [4]
HPLM + 10% dialyzed FBS	457	461	429
RPMI 5 mM glucose + 10% FBS	451	457	471
RPMI 5 mM glucose + 10% dialyzed FBS	470	445	434
